Data as given in patent US20230000852A1, “Treatment of Dermal Cytokine Storm Syndromes” (Bridge Pharma, Inc., priority 2021, published 2023).
Where a name gives a salt, the structure may show the parent alone.

What was measured:
[1] = test system: IL-1β; experiment: PHA-induced IL-1β release from human leucocytes (buffy coats); type: cell-based; details: Leucocyte, 10 uM, 30 min pre-incubation, PHA 5 μg/ml 16 hours
Description: (§1) The objective of this study was to assess the ability of norketotifen to inhibit cytokine release from stimulated human leucocytes.
(§2) The study was conducted in two phases. The first phase included optimization of the test methodology and including dose-range finding studies, using buffy coats from 3 human donors, stimulated with phytohemagglutinin (PHA). Following optimization of the test conditions, a final protocol was issued. In the ensuing Main Study, white blood cells (buffy coats) from 5 healthy human donors were stimulated with PHA, 5 μg/ml. The concentrations of the test article and the duration of exposure were optimized to obtain acceptable dose-response ratios. Thus, the inhibitory effects of three concentrations of NK and one concentration of ketotifen were evaluated in the Main Study. The buffy coats containing white blood cells from 5 male human donors were resuspended in assay media and were pre-incubated for 30 min with either vehicle/saline, ketotifen 4.3 μg/ml (10 μM) and norketotifen 0.4 μg/ml, 4.1 μg/ml and 41 μg/ml (1.0; 10 and 100 μM). Following these preincubations, the white blood cells were stimulated for 16 hours with PHA, 5 μg/ml. The cell system supernatants were then harvested and stored frozen pending analyses.
(§3) The concentration of the test articles had to be high in this ex vivo study since the test kit used a high concentration of the agonist PHA (5 μg/ml) and a long exposure time (16 hrs).

[2] = test system: IL-6; experiment: PHA-induced IL-6 release from human leucocytes (buffy coats); type: cell-based; details: Leucocyte, 10 uM, 30 min pre-incubation, PHA 5 μg/ml 16 hours
Description: as §1, §2, §3

[3] = test system: TNFα; experiment: PHA-induced TNFα release from human leucocytes (buffy coats); type: cell-based; details: Leucocyte, 10 uM, 30 min pre-incubation, PHA 5 μg/ml 16 hours
Description: as §1, §2, §3

[4] = test system: IL-4; experiment: PHA-induced IL-4 release from human leucocytes (buffy coats); type: cell-based; details: Leucocyte, 10 uM, 30 min pre-incubation, PHA 5 μg/ml 16 hours
Description: as §1, §2, §3

[5] = test system: IL-2; experiment: PHA-induced IL-2 release from human leucocytes (buffy coats); type: cell-based; details: Leucocyte, 10 uM, 30 min pre-incubation, PHA 5 μg/ml 16 hours
Description: as §1, §2, §3

[6] = test system: IL-8; experiment: PHA-induced IL-8 release from human leucocytes (buffy coats); type: cell-based; details: Leucocyte, 10 uM, 30 min pre-incubation, PHA 5 μg/ml 16 hours
Description: as §1, §2, §3

[7] = test system: IL-10; experiment: PHA-induced IL-10 release from human leucocytes (buffy coats); type: cell-based; details: Leucocyte, 10 uM, 30 min pre-incubation, PHA 5 μg/ml 16 hours
Description: as §1, §2, §3

[8] = test system: IL-13; experiment: PHA-induced IL-13 release from human leucocytes (buffy coats); type: cell-based; details: Leucocyte, 10 uM, 30 min pre-incubation, PHA 5 μg/ml 16 hours
Description: as §1, §2, §3

[9] = test system: INF-γ; experiment: PHA-induced INF-γ release from human leucocytes (buffy coats); type: cell-based; details: Leucocyte, 10 uM, 30 min pre-incubation, PHA 5 μg/ml 16 hours
Description: as §1, §2, §3

[10] = test system: human leucocytes (buffy coats); experiment: Cytokine and chemokine release from stimulated human leucocytes, overall; type: cell-based; details: PHA 5 μg/ml, 16 hours
Description: as §1
as §2, with “analyses. […]” for “analyses.”

[11] = test system: shaved skin of Gottingen minipigs; experiment: Skin irritation study in Göttingen mini pigs; type: in vivo, Göttingen minipigs; details: dermal once daily for four consecutive days
Description: To assess possible skin irritation following repeated dermal application of racemic norketotifen as a hydrogen fumarate salt (NK-HF) to Gottingen Minipigs.
Standard creamy polyethylene-glycol (PEG400/PEG4000; herein called PEG) formulations containing 0% (vehicle control), 5% or 10% of RS-norketotifen hydrogen fumarate (NK-HF) were prepared and applied once daily for four consecutive days to three marked areas (3 inches×3 inches) of the shaved skin of Gottingen minipigs pigs (2M+2F, 7-8 months; 9.7-11.6 kg). The volumes used for each application were 3.5 mL). Four animals were used in this study. The number of animals was intended to satisfy regulatory guidelines, to meet general scientific principles and to meet Bridge Pharma's animal-sparing commitments. The vehicle and the test articles were applied once daily for four consecutive days, and erythema (redness), edema (swelling) and eschar (scab) were assessed by the Study Director, who personally assessed and scored the appearance of the skin before the daily cream applications and four hours thereafter on Days 1 through 4. Additional inspections and scorings were performed on Day 5, twenty-four hours after the last (Day 4) applications of the vehicle and test articles.

[12] = test system: IL31-induced (SC) pruritus; experiment: IL-31-induced pruritus in mice; type: in vivo; details: for Pruritic Bouts Mean ± SEM: 10 mg/kg oral 60 minutes before murine IL31 1.0 μg/30 gram SC, counted for 120 min, N 8; for Protection: 10 mg/kg oral 60 minutes before murine IL31 SC, vs vehicle
Description: To determine if NK inhibits IL31-induced pruritus in mice. Studies have now been performed, using murine IL31 as a pruritogen. Mice were dosed orally with a test article exactly 60 minutes before murine IL31 at a dose of 1.0 μg/30 gram body weight was injected subcutaneously into a previously depilated area on the rostral part of the back of mice. IL31 was dissolved in phosphate buffered saline (PBS) with 0.1% bovine serum albumin (BSA). The injected volume was 0.1 ml/mouse. The bouts of scratching were counted for 120 min, starting 30 min after the injection of IL31. The bouts of scratching were counted by trained laboratory personnel who were unaware of the pretreatment of the animals. Oclacitinib (Apoquel®) is a Janus kinase inhibitor that is the worldwide market leader for oral treatment of atopic dermatitis in dogs.

[13] = Dermal and plasma concentrations of NK after oral dosing to dogs; type: in vivo; details: for AUC∞ Plasma / MRT Plasma / T1/2 Plasma / AUC∞ Skin / MRT Skin / T1/2 Skin: oral S-NK 8.0 mg/kg/day for 28 days, dogs (N = 5)
Description: The purpose was to determine drug concentrations and calculate pharmacokinetics in the skin and plasma of dogs during and following daily oral administration of S-NK-HF (the S-isomer of norketotifen hydrogen fumarate) for four weeks.
Five male beagle dogs, weighing 11.2-13.9 kg (2-4 years old) were included in the study. All animals were administered p.o. doses of the test article 8.0 mg/kg/day as a hydrogen fumarate salt, equal to 5.6 mg/kg/day of the free base. A single isomer of NK was used, since an objective of this study was also to assess the racemization of the NK isomers. The animals were dosed once daily for four weeks followed by daily observations and tissue sampling for an additional two-week washout period.
Multiple plasma samples and skin biopsies were taken from each dog on Day 1 and Day 28 of drug administration. The plasma and skin samplings were performed at pre-dose, and at 2, 6, 12, and 24 hours post-dose. Plasma and skin samples were also taken intermittently at predetermined intervals during the 28-days dosing period and up to the last day of the study, which was Day 42. Blood samples were taken from v. cephalica antebrachii. Skin biopsies were taken from the area between the mid ventral to lateral abdominal areas, using a 6 mm skin biopsy punch. Subcutaneous fat deposits were carefully trimmed from the skin samples and the skin samples were then weighed. All plasma and skin samples were analyzed using LC/MS/MS methodology.

In the case of `CN1CCC(=C2c3ccccc3CC(=O)c3sccc32)CC1` [Ketotifen, ketotifen, reference compound], the inhibition at 10 µM [1] is reported as 0%, the inhibition at 10 µM [2] is reported as 0% and the inhibition at 10 µM [3] is reported as 0%. The inhibition at 10 µM [4] was 0%, the inhibition at 10 µM [5] was 0% and the inhibition at 10 µM [6] was 20%. The inhibition at 10 µM [7] was 0%, the inhibition at 10 µM [8] was 0% and the inhibition at 10 µM [9] was 0%. For the same compound, the “Inhibition of release of cytokines and chemokines from human white blood cells (in words)” value [10] was “No statistically significant inhibition”.

For `O=C(O)C=CC(=O)O.O=C1Cc2ccccc2C(=C2CCNCC2)c2ccsc21` [NK-HF, RS-norketotifen hydrogen fumarate], the “Skin irritation (erythema, edema, eschar)” value ([11]; 5% in creamy PEG formulation) was “did not induce any irritation”, the “Skin irritation (erythema, edema, eschar)” value ([11]; 10% in creamy PEG formulation) was “did not induce any irritation” and the “Pruritic Bouts Mean ± SEM” value [12] was 93 ± 10. It also gave a Protection [12] of 54%.

In the case of `CNS(=O)(=O)C[C@H]1CC[C@H](N(C)c2ncnc3[nH]ccc23)CC1` [Oclacitinib maleate, Oclacitinib, reference compound], the “Pruritic Bouts Mean ± SEM” value [12] is reported as 116 ± 29 and the Protection [12] is reported as 43%.

For `O=C(O)/C=C/C(=O)O.O=C1Cc2ccccc2C(=C2CCNCC2)c2ccsc21` [R-NK, R-norketotifen], the “AUC∞ Plasma” value [13] was 1658 ng*hr/mL or g, the “MRT Plasma” value [13] was 14.1 h and the “T1/2 Plasma” value [13] was 7.7 h. The “AUC∞ Skin” value [13] was 20376 ng*hr/mL or g, the “MRT Skin” value [13] was 159.1 h and the “T1/2 Skin” value [13] was 157.0 h.

With `O=C1Cc2ccccc2C(=C2CCNCC2)c2ccsc21` [S-NK, S-norketotifen] the “Racemization after oral administration of the single isomer” value ([13]; dogs, oral) was “RS-norketotifen was rapidly formed”, the “AUC∞ Plasma” value [13] was 1627 ng*hr/mL or g and the “MRT Plasma” value [13] was 11.3 h. The “T1/2 Plasma” value [13] was 10.9 h, the “AUC∞ Skin” value [13] was 25710 ng*hr/mL or g and the “MRT Skin” value [13] was 159.0 h. The “T1/2 Skin” value [13] was 162.7 h.
